Values of other authors as cited in patent publication US6638541B1, “Sexual desire and performance enhancement with protein-bound tryptophan” (priority 2002, dated 2003).

Assays:
[1] = higher dosages (greater than 12 gm per day); Hartmann, 1977
plasma albumin = molecular target: T1, plasma albumin (Homo sapiens, UniProt P02768); conditions: after absorption, circulating in the blood
T1 construct: host or cells: blood plasma in vivo (endogenous circulating albumin)
T1 sequence (P02768 25-609): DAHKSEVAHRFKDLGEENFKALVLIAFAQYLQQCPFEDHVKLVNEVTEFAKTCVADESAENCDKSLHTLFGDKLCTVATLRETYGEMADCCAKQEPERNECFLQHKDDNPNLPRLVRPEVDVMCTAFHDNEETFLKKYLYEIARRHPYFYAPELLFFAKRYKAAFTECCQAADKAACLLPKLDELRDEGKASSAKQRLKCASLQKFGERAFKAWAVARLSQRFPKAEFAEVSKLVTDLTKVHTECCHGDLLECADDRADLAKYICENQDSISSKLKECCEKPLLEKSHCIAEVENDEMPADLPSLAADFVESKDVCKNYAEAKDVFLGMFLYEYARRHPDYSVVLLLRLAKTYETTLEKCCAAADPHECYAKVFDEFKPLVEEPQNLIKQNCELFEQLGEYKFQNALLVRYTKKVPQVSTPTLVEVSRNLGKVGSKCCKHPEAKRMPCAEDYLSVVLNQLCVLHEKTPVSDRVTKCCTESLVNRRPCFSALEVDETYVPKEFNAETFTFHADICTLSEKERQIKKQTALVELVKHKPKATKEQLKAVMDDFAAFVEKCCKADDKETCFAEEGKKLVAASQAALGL

SMILES: N[C@@H](Cc1c[nH]c2ccccc12)C(=O)O [tryptophan]
- most frequent complaints [1]: daytime sedation and nausea
- dose at which the hypnotic dose-response curve plateaus (sleep / sleep latency; fairly flat dose-response curve, Schneider-Helmut and Spinweber, 1986): approximately 1000 mg
- dose sufficient to produce improved sleep (sleep / sleep latency; given alone, people with mild insomnia or longer-than-average sleep latency): 250 mg
- fraction circulating as free tryptophan (plasma albumin): 20%
- fraction of tryptophan in blood bound to plasma albumin (plasma albumin): approximately 80%
